PubChem BioAssay (NCI)
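The concentration for 50% growth inhibition is given as GI50. TGI is the concentration that stops growth completely.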

Experiments:
Test in all cases: inhibition of tumour cell growth, NCI panel, 384-well format
786-0 renal = test system: 786-0 renal
CCRF-CEM leukemia = test system: CCRF-CEM leukemia
HOP-92 NSCLC = test system: HOP-92 NSCLC
HS 578T breast = test system: HS 578T breast
KM12 colon = test system: KM12 colon
M14 melanoma = test system: M14 melanoma
NCI-H226 lung = test system: NCI-H226 lung
NCI-H23 lung = test system: NCI-H23 lung
PC-3 prostate = test system: PC-3 prostate
SN12C renal = test system: SN12C renal
TK-10 renal = test system: TK-10 renal
U251 glioblastoma = test system: U251 glioblastoma
UACC-62 melanoma = test system: UACC-62 melanoma

Compound: Cc1ccc2c(N)c(C(=O)N[C@H]3CCc4cc(N5CC6CCC(C5)N6)ccc4C3)sc2n1
- GI50 (786-0 renal): 0.229 µM
- TGI (786-0 renal): 0.997 µM
- GI50 (CCRF-CEM leukemia): 0.0423 µM
- TGI (CCRF-CEM leukemia): 0.133 µM
- GI50 (HOP-92 NSCLC): 0.373 µM
- TGI (HOP-92 NSCLC): 1.64 µM
- GI50 (HS 578T breast): 0.18 µM
- TGI (HS 578T breast): 0.543 µM
- GI50 (KM12 colon): 0.228 µM
- TGI (KM12 colon): 1.2 µM
- GI50 (M14 melanoma): 0.104 µM
- TGI (M14 melanoma): 0.343 µM
- GI50 (NCI-H226 lung): 0.178 µM
- TGI (NCI-H226 lung): 0.713 µM
- GI50 (NCI-H23 lung): 0.211 µM
- TGI (NCI-H23 lung): 0.594 µM
- GI50 (PC-3 prostate): 0.222 µM
- TGI (PC-3 prostate): 0.989 µM
- GI50 (SN12C renal): 0.124 µM
- TGI (SN12C renal): 0.647 µM
- GI50 (TK-10 renal): 0.253 µM
- TGI (TK-10 renal): 0.757 µM
- GI50 (U251 glioblastoma): 0.27 µM
- TGI (U251 glioblastoma): 1.03 µM
- GI50 (UACC-62 melanoma): 0.241 µM
- TGI (UACC-62 melanoma): 0.811 µM
